According to PubChem BioAssay (NCI):
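Grown in 96-well plates, cells were treated for 48 hours with each compound at five concentrations. Insufficient inhibition: endpoint recorded as highest concentration tested. At the TGI there is no net growth.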

Key:
Assay in all cases: inhibition of tumour cell growth, NCI panel, 48 h
PC-3 prostate = test system: PC-3 prostate
SR leukemia = test system: SR leukemia
SK-MEL-2 melanoma = test system: SK-MEL-2 melanoma
SF-268 CNS = test system: SF-268 CNS
SN12C renal = test system: SN12C renal
HCC-2998 colon = test system: HCC-2998 colon
A549 NSCLC = test system: A549 NSCLC
HS 578T breast = test system: HS 578T breast
NCI-H23 lung = test system: NCI-H23 lung
MDA-MB-435 = test system: MDA-MB-435
U251 CNS = test system: U251 CNS
SK-MEL-28 melanoma = test system: SK-MEL-28 melanoma
HCT-116 colon = test system: HCT-116 colon
OVCAR-3 ovarian = test system: OVCAR-3 ovarian
TK-10 renal = test system: TK-10 renal
NCI-H226 lung = test system: NCI-H226 lung
CAKI-1 renal = test system: CAKI-1 renal
MOLT-4 leukemia = test system: MOLT-4 leukemia
NCI-H460 lung = test system: NCI-H460 lung
HCT-15 colon = test system: HCT-15 colon
NCI/ADR-RES ovarian = test system: NCI/ADR-RES ovarian
CCRF-CEM leukemia = test system: CCRF-CEM leukemia
UACC-62 melanoma = test system: UACC-62 melanoma
K-562 leukemia = test system: K-562 leukemia
ACHN renal = test system: ACHN renal
OVCAR-8 ovarian = test system: OVCAR-8 ovarian
HT29 colon = test system: HT29 colon
MCF7 breast = test system: MCF7 breast
SW-620 colon = test system: SW-620 colon
HOP-92 NSCLC = test system: HOP-92 NSCLC
EKVX NSCLC = test system: EKVX NSCLC
LOX IMVI melanoma = test system: LOX IMVI melanoma
M14 melanoma = test system: M14 melanoma
DU-145 prostate = test system: DU-145 prostate
SK-MEL-5 melanoma = test system: SK-MEL-5 melanoma
SF-295 CNS = test system: SF-295 CNS
SNB-19 CNS = test system: SNB-19 CNS
UACC-257 melanoma = test system: UACC-257 melanoma
SK-OV-3 ovarian = test system: SK-OV-3 ovarian
SF-539 CNS = test system: SF-539 CNS
HOP-62 NSCLC = test system: HOP-62 NSCLC
COLO 205 colon = test system: COLO 205 colon
786-0 renal = test system: 786-0 renal
RXF 393 renal = test system: RXF 393 renal
RPMI-8226 leukemia = test system: RPMI-8226 leukemia
OVCAR-4 ovarian = test system: OVCAR-4 ovarian
UO-31 renal = test system: UO-31 renal
MDA-MB-231 breast = test system: MDA-MB-231 breast
BT-549 breast = test system: BT-549 breast
T-47D breast = test system: T-47D breast
NCI-H522 lung = test system: NCI-H522 lung
OVCAR-5 ovarian = test system: OVCAR-5 ovarian
KM12 colon = test system: KM12 colon
IGROV1 ovarian = test system: IGROV1 ovarian
HL-60(TB) leukemia = test system: HL-60(TB) leukemia
MDA-N = test system: MDA-N
A498 renal = test system: A498 renal
SNB-75 CNS = test system: SNB-75 CNS
MALME-3M melanoma = test system: MALME-3M melanoma

Measured: TGI

Cc1ccc(NC(=O)C(=O)CC(=O)c2sc(Nc3c(C)cccc3C)nc2C)cc1C
not listed: A498 renal | SNB-75 CNS | MALME-3M melanoma
> 100 µM: all other assays above

CCCC(CCN)(CCN)[N+](=O)[O-]
not listed: HCC-2998 colon | SK-MEL-28 melanoma | OVCAR-3 ovarian | MCF7 breast | HOP-92 NSCLC | LOX IMVI melanoma | HOP-62 NSCLC
> 100 µM: all other assays above
